Results on one substance are retold here after PMC4409337, “Immucillins Impair Leishmania (L.) infantum chagasi and Leishmania (L.) amazonensis Multiplication In Vitro” (PLoS ONE, 2015).

Read-outs that look alike come from different tables or passages of the source.

Broadly, the IC50 is the concentration that gives 50% inhibition. As a reminder, the EC50 is the concentration needed to bring the measured effect to its halfway point.

In test [1] the test system is strains of L. (L.) infantum chagasi. On the set-up: method as in PMID 23747751. The settings on record: cited from earlier work.
Test [2] concerns intracellular amastigotes of L. (L.) infantum chagasi. The settings on record: cited from earlier work.
The test system is the same in test [3]. Briefly: Replication of intracellular amastigotes in infected peritoneal macrophages (phagocytic index). It is filed as cell-based, Leishmania (L.) infantum chagasi. The protocol:
[…] […] The amastigote growth was assessed 24 h after the last drug addition, on 200 cells in Giemsa stained coverslips and expressed as phagocytic index = percent of infected macrophages x average number of intracellular amastigotes. […] All experiments with mice were reviewed and approved by the Animal Care and Use Committee of the Instituto de Biofísica Carlos Chagas Fo.-UFRJ (CAUAP-CONCEA, Brazil, IMPPG-016) and were performed according to the guidelines of the National Institutes of Health, USA. We made all efforts in order to minimize animal suffering.

Test [4] has as its system amastigotes of L. (L.) amazonensis. Details: method as in PMID 18660990. The settings on record: ref 43; read-out: IC50 against amastigotes; cited from earlier work.

With Glucantime, the IC50 was 20000 to 32300 µM in test [1] (Leishmania strains isolated from dogs); 430 to 5760 µM in test [1] (human strains of L. (L.) infantum chagasi); 348 µM in test [2] (ref 43, read-out: IC50 against replication of amastigotes); 1420 µM in test [2] (ref 44, read-out: IC50 against intracellular amastigotes); 31.1 µM in test [2] (ref 45, read-out: IC50 against intracellular amastigotes); 62.6 µM in test [4]. In addition, the EC50 in test [3] (drugs (0.5–10 μM) added at 0 h, incubation 24 h, linear interpolation, read-out: EC50 (CI 95%)) amounted to 7.1 µM. The “reduction in the number of intracellular amastigotes” value in test [3] (single 10 μM dose at 0 h, compared to untreated controls) is listed as 70%.
